Results: patent US6310247A, “7-aryl-6(Z)-heptatrienoic acid retinamides” (Hoffmann-LA Roche Inc., priority 1999, dated 2001)
Read-outs that look alike come from different tables or passages of the source.

Columns and labels:
H1299 cells = test: Apoptosis: cell death detection by ELISA, H1299 (lung large cell carcinoma); assay type: cell-based; details: Homo sapiens, NCI-H1299, read-out: Fold induction of apoptosis compared to no drug control
Method: Lung, large cell carcinoma, human (H1299), obtained from ATCC (CRL-5803), were grown in Gibco's Delbecco Minimum Essential media (DMEM), high glucose, supplemented with sodium pyruvate, 10% FBS and 13 ng/mL gentamicin. Cells were incubated at 37° C., 4.5% CO2 and 95.5% humidified air.
(§1) 2. Apoptosis: Cell death detection by ELISA:
(§2) Compounds of formula 1 were tested for the ability to cause apoptosis as follows:
(§3) Cells and media were collected, cells were pelleted, resuspended in 100 μl lysis buffer (50 mM Tris-Cl (pH=8.0), 20 mM EDTA, 1% NP-40e) and incubated 30 minutes at 4° C. to lyse. Cell debris was spun down and an aliquot (30 μl) of the […] was removed for protein determination and stored at -20° C. An additional 280 μl of lysis buffer, was added, mixed thoroughly and spun down at 14,000 RPM for 10 minutes at 4° C. An aliquot was removed (180 μl) and the sample was stored at -20° C. until testing.
(§4) A commercially available apoptosis detection kit, obtained from Boehringer Mannheim (Cat. No. 1544-674), was used as per the directions provided with the kit (Cell Death Detection ELISA). However, the protocol was modified in that a 1:40 to 1:100 dilution of sample was prepared, rather than the recommended 1:10 dilution, due to the increase in cell number used to prepare the sample extract and the subsequent increase in ELISA reactivity. The assay measures apoptosis by quantifying the amount of nucleosomal fragmentation from the extracts of cells treated with the test compounds (samples). These nucleosomal fragments, generated by the activation of endonucleases, are a known downstream effector of apoptosis. Antihistone antibodies are used to fix any nucleosomal fragments in the sample to the well of the microtiter plates. The sample is then incubated with anti-DNA antibodies conjugated to peroxidase and subsequently incubated with the peroxidase substrate, ABTS. The resulting colorimetric change is measured spectrophotometrically at 405/490nm.
(§5) The total protein content of each sample was determined for the purpose of normalizing the ELISA values to amount of sample loaded. Microplate assay protocol described in the instruction manual, for (Biorad DC Assay, Cat.#500-0116) section 5.2. The protein concentrations were calculated based upon a linear regression curve.
(§6) d) ELISA assay calculations
(§7) Relative ELISA O.D. readings are determined by subtracting the ELISA plate background O.D. value. No drug control O.D. value (lysis buffer only) was subtracted from sample O.D. value. A correction coefficient (CC), based on the sample protein concentration compared to no drug control, was determined to correct the sample O.D. following subtraction of the background O.D. (BCS O.D.). The fold increase over no drug control is calculated and normalized to the total protein concentration of the samples by multiplying against the correction coefficient.
(§8) To determine the fold increase in ELISA O.D., obtain the following O.D. measurements:
(§9) ELISA plate background--lysis buffer only (EPB);
(§10) no drug treated control--cell sample treated with DMSO (NDT);
(§11) drug treated sample--cell sample treated with a compound of formula 1 (DT) Subtract EPB from NDT (NDT-EPB) and DT (DT-EPB). The fold increase of the treated over the control is then (DT-EPB)/(NDT-EPB).
(§12) To determine the total protein concentration of the samples, obtain the total protein concentration in mg/ul calculated using standard linear regression formula (y=mx+b) based on BSA standards. B=ELISA background. Protein concentration (PC)(mg/ml)=(sample absorbance-b)/x.
(§13) Correction coefficient (cc) is (NDT)(PC)/(DT)(PC).
(§14) Determine fold increase of ELISA (FT) normalized to total PC:
(§15) nDT is DT×cc (which is DT O.D. normalized to PC)
(§16) nNDT is NDT×cc (which is NDT O.D. normalized to PC)
(§17) FI normalized to PC is nDT/nNDT.

ZR-75-1 cells [1] = test: Cell growth inhibition: MTT assay, ZR-75-1 (ER+ breast carcinoma); assay type: cell-based; details: Homo sapiens, read-out: % inhibition of cell growth compared to no drug control
Method: (§18) ER+ breast carcinoma, human (ZR-75-1) obtained from ATCC (CRL 1500), were grown in Gibco's RPMI 1640 media supplemented with sodium pyruvate, 10% FBS and 13 ng/mL gentamicin. Cells were incubated at 37° C., 4.5% CO2 and 95.5% humidified air.
1. Cell growth inhibition: MTT Assay
The compounds of formula 1 were tested for ability to inhibit cell growth using the standard MTT assay, a tetrazolium-based assay which measures the viability of cells in culture. Cells were harvested upon reaching 70-80% confluency and pelleted. The cells were then resuspended in medium in which FBS was replaced with Hyclone's Charcoal/Dextran stripped FBS, and seeded (2 mL/well) into 6-well plates (Corning) at a density allowing for linear growth over a four day assay period. Compounds of formula 1 (10 mM stock in dimethylsulfoxide (DMSO)) were added 18-24 hours post-seeding. Compound dilutions were prepared in the appropriate growth media and added to the cells for final concentrations of 10, 3.3 and 1 μM in 0.1% DMSO. At 24, 48 and 72 hr. time points, MTT (3-[4,5-dimethylthiazol-2-yl-2,5-diphenyltetrazolium bromide) stock solution (5mg/mL in 1 PBS) was added to the cells plates (625 μL/well) which were then incubated for 2.5 hours. Liquid was aspirated from the wells and 1 mL/well of 95% ethanol was added to solubilize the formazan reaction product. The plates were shaken (Bellco Mini-Orbital Shaker) for 15 minutes. The solubilized formazan was then transferred (50 μls) into a 96-well plate and the optical densities (OD) were measured (Bio-Tek Microplate Reader) at 570 nm and reference wavelength of 660 nm. Percentage of inhibition of cell growth was calculated according to the following formula: [formula]

ZR-75-1 cells [2] = test: Apoptosis: cell death detection by ELISA, ZR-75-1; assay type: cell-based, human; details: for fold induction at 1 µM / fold induction at 3.3 µM / fold induction at 10 µM: Homo sapiens, read-out: Fold induction of apoptosis compared to no drug control
Method: as §18, §1, §2, §3, §4, §5, §6, §7, §8, §9, §10, §11, §12, §13, §14, §15, §16, §17

## C/C(=C/C=C/C(C)=C/C(=O)Nc1ccc(O)cc1)c1cc(C(F)(F)F)cc(C(F)(F)F)c1 [N-(4-hydroxyphenyl)-(2E,4E,6Z)-7-[3,5-bis(trifluoromethyl)phenyl]-3,7-dimethyl-2,4,6-heptatrienamide]
H1299 cells; 24 hrs
  fold induction at 1 µM: 1
  fold induction at 3.3 µM: 3
  fold induction at 10 µM: 2
H1299 cells; 48 hrs
  fold induction at 1 µM: 1
  fold induction at 3.3 µM: 10
  fold induction at 10 µM: 12
H1299 cells; 72 hrs
  fold induction at 1 µM: 1
  fold induction at 3.3 µM: 17
  fold induction at 10 µM: 20
ZR-75-1 cells [1]; 24 hours
  inhibition at 1 µM: 1%
  inhibition at 3.3 µM: 14%
  inhibition at 10 µM: 21%
ZR-75-1 cells [1]; 48 hours
  inhibition at 1 µM: 0%
  inhibition at 3.3 µM: 18%
  inhibition at 10 µM: 30%
ZR-75-1 cells [1]; 72 hours
  inhibition at 1 µM: 13%
  inhibition at 3.3 µM: 56%
  inhibition at 10 µM: 64%
ZR-75-1 cells [2]; ZR-75-1, 24 h, 24 hrs
  fold induction at 1 µM: 2
  fold induction at 3.3 µM: 2
  fold induction at 10 µM: 3
ZR-75-1 cells [2]; ZR-75-1, 48 h, 48 hrs
  fold induction at 1 µM: 2
  fold induction at 3.3 µM: 19
  fold induction at 10 µM: 15
ZR-75-1 cells [2]; ZR-75-1, 72 h, 72 hrs
  fold induction at 1 µM: 2
  fold induction at 3.3 µM: 69
  fold induction at 10 µM: 67
ZR-75-1 cells [2]; after 48 hours
  Induction of apoptosis (in words): induces significant apoptosis
